Results on 4 compounds are retold here after patent publication US8946423B2, “Highly soluble salt of pyrroloquinoline quinone and method for producing the same” (Mitsubishi Gas Chemical Company, Inc., priority 2010, dated 2015).

The data set in a line: Dissolution test: salts dissolved up to saturation, solubility determined by absorbance at 450 nm. As to conditions: for Relative Ratio (solubility): relative to Disodium Salt of PQQ in water = 1; for solubility of pyrroloquinoline / solubility of pyrroloquinoline, mmol/L: saturation at room temperature of 23 to 28° C. How it is done: The disodium salt of PQQ obtained by the method as described in Example 1 was used.
These salts were dissolved up to saturation at room temperature of 23 to 28° C., and these solutions each were diluted by 20 times or 400 times with a phosphate buffer having a pH of 7.5. For the diluted solutions each, an analysis of the ultraviolet-visible absorption spectra was carried out using a HITACHI U-2000 spectrometer.

For the compound Dicholine Salt of PQQ, the “Relative Ratio (solubility)” value (Solvent Ethanol) is 13.9 and the “Relative Ratio (solubility)” value (Solvent Water) was determined as 11.8. The “solubility of pyrroloquinoline” value is, setting by setting: (Solvent Ethanol) 111 mM; (Solvent Water) 94 mM.

With `C[N+](C)(C)CCO.C[N+](C)(C)CCO.C[N+](C)(C)CCO.O=C(O)c1cc(C(=O)O)c2c(n1)C(=O)C(=O)c1cc(C(=O)O)[nH]c1-2` [Tricholine Salt of PQQ], the “solubility of pyrroloquinoline, mmol/L” value (Solvent Ethanol) is ≥ 171 or mmol/L and the “solubility of pyrroloquinoline, mmol/L” value (Solvent Water) is given as ≥ 171 or mmol/L.

Consider Monocholine Salt of PQQ, for which the “Relative Ratio (solubility)” value is, setting by setting: (Solvent Ethanol) 0.06; (Solvent Water) 0.24. The “solubility of pyrroloquinoline” value came to 0.52 mM (Solvent Ethanol) and 1.94 mM (Solvent Water).

Take `O=C([O-])c1cc(C(=O)[O-])c2c(n1)C(=O)C(=O)c1cc(C(=O)O)[nH]c1-2.[Na+].[Na+]` [Disodium Salt of PQQ, reference compound]: the “solubility in ethanol (in words)” value is listed as “almost insoluble”.
